Results on 7 molecules are retold here after ChEMBL document CHEMBL6182925 (J Med Chem, 2025).

Series [1] can be described thus: Kinetic solubility of compound at pH 2. The format is physicochemical. Particulars: buffer, read-out: Kinetic_solubility.
The nature of series [2]: Kinetic solubility of compound at pH 4.5. It is filed as physicochemical. Particulars: buffer, read-out: Kinetic_solubility.
Series [3] concerns the target T1, Alpha-2A adrenergic receptor (Homo sapiens) (UniProt P08913).
T1 sequence (whole entry): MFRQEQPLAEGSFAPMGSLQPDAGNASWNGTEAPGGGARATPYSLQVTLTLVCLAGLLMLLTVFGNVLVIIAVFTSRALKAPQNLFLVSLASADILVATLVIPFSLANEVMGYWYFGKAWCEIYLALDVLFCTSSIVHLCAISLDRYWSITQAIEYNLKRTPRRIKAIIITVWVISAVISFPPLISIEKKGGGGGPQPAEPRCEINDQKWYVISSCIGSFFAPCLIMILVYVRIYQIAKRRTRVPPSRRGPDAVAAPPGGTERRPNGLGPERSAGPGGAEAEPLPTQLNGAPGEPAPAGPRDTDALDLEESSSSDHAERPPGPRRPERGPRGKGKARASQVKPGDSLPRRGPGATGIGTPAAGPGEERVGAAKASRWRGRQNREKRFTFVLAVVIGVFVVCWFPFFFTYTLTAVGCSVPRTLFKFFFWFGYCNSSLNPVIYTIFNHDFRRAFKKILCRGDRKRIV
The series can be described thus: Inhibition of alpha 2A adrenergic receptor (unknown origin) at 10 uM by CEREP analysis relative to control.

The next series has as its target hERG (Homo sapiens, UniProt Q12809). The series can be described thus: Inhibition of hERG at 10 uM by CEREP analysis relative to control. The format is toxicity. In general terms: Block of hERG is tested as a sign of cardiac risk.
Series [4] deals with 5-hydroxytryptamine receptor 1B (Homo sapiens) (UniProt P28222). The series can be described thus: Inhibition of 5-HT1B receptor (unknown origin) at 10 uM by CEREP analysis relative to control.
The target of series [5] is 5-hydroxytryptamine receptor 2B (Homo sapiens) (UniProt P41595). The series can be described thus: Inhibition of 5-HT2B receptor (unknown origin) at 10 uM by CEREP analysis relative to control.
The next series is filed under the species Homo sapiens. The series can be described thus: Inhibition of sodium channel site 2 (unknown origin) at 10 uM by CEREP analysis relative to control.
A further series concerns the target L-type calcium channel (Homo sapiens, UniProt O60840+Q01668+Q13698+Q13936). The experiment in a line: Inhibition of Calcium channel L-type (unknown origin) at 10 uM by CEREP analysis relative to control. It is filed as protein assay.
Series [6] addresses Sodium-dependent serotonin transporter (Homo sapiens) (UniProt P31645). The experiment in a line: Inhibition of SERT (unknown origin) at 10 uM by CEREP analysis relative to control.
Series [7] concerns the target cGMP-inhibited 3',5'-cyclic phosphodiesterase 3A (Homo sapiens) (UniProt Q14432). The series can be described thus: Inhibition of PDE3A (unknown origin) at 10 uM by CEREP analysis relative to control.
The target in series [8] is 3',5'-cyclic-AMP phosphodiesterase 4D (Homo sapiens) (UniProt Q08499). The series can be described thus: Inhibition of PDE4D2 (unknown origin) at 10 uM by CEREP analysis relative to control.
The target in series [9] is T2, Muscarinic acetylcholine receptor M2 (Homo sapiens) (UniProt P08172).
T2 sequence (whole entry): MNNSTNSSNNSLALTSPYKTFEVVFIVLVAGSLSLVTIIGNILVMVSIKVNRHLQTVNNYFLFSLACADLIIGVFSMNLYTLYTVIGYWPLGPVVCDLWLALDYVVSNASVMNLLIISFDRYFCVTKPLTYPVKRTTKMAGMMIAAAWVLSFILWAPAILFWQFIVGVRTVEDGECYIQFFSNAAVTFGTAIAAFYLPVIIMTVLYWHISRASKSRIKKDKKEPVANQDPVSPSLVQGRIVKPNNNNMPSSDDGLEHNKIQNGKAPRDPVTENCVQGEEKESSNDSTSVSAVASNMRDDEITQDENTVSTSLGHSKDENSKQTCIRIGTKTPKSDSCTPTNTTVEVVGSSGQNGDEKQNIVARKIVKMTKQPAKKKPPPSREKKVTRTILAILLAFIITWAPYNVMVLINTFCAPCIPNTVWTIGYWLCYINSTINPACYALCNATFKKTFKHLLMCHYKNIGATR
The experiment in a line: Inhibition of muscarinic M2 receptor (unknown origin) at 10 uM by CEREP analysis relative to control.

Series [10] can be described thus: Clearance in mouse. The format is ADME, organism-based. Particulars: in vivo.
A short description of series [11]: Oral bioavailability in mouse. It is filed as ADME, organism-based. To be noted: in vivo.
A further series in a line: cells. To be noted: Mus musculus, BaF3/TRP-Met, 72 h.
In the next series the test system is BaF3. The series can be described thus: cells. To be noted: Mus musculus, BaF3, 72 h.
The next series concerns the target Cytochrome P450 3A4 (Homo sapiens, UniProt P08684). The series can be described thus: Inhibition of CYP3A4 (unknown origin). It is filed as ADME.
Series [12] addresses Hepatocyte growth factor receptor (Homo sapiens, UniProt P08581). The series can be described thus: Inhibition of N-terminal GST-tagged wild-type human c-MET (956 to 1390 residues) extracted from baculovirus infected Sf21 cells using 5-FAM-KKKKEEIYFFF-CONH2 as substrate preincubated for 30 mins followed by ATP addition measured after 60 mins by fluorescence-based microfluidic mobility shift assay.

Series [13] has as its target Hepatocyte growth factor receptor (Homo sapiens, UniProt P08581, D1228N). The series can be described thus: Inhibition of N-terminal GST-tagged recombinant human c-MET D1228N mutant (956 to end residues) extracted from baculovirus infected Sf9 cells using 5-FAM-KKKKEEIYFFF-CONH2 as substrate preincubated for 30 mins followed by ATP addition measured after 60 mins by fluorescence-based microfluidic mobility shift assay.

The target of series [14] is Vascular endothelial growth factor receptor 2 (Homo sapiens, UniProt P35968). The series can be described thus: Inhibition of KDR (unknown origin) by fluorescence-based microfluidic mobility shift assay.

The term inhibition denotes the change of the read-out against control, counted positive when it falls. For orientation: clearance means the rate of elimination divided by the concentration. As usually defined, the bioavailability is the share of a dose that reaches the circulation, judged against a reference dose that is usually intravenous. High values mean good availability, low ones poor availability. A word on the EC50: it is the concentration needed to bring the measured effect to its halfway point. Low readings indicate greater potency, high ones weaker potency. Usually IC50 stands for the concentration that inhibits the measured activity by half.

In brackets after ≈: the same amount, converted by molar mass.

Sequence of Cytochrome P450 3A4 (P08684 whole entry, the tested form may be a part): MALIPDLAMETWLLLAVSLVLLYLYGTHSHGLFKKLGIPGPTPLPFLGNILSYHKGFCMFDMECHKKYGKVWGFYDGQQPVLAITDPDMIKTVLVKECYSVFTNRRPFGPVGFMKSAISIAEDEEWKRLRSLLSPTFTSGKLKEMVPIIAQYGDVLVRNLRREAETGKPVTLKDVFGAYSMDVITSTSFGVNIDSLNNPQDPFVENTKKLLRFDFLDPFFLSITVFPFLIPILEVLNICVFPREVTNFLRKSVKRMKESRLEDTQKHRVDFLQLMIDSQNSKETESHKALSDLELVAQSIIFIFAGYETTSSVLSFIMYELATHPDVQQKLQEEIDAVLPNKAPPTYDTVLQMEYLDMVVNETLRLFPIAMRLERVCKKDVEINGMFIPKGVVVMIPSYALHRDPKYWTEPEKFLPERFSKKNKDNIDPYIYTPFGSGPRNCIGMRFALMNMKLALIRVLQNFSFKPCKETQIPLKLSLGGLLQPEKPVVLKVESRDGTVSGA
Sequence of Hepatocyte growth factor receptor (Homo sapiens, UniProt P08581) (P08581 whole entry, the tested form may be a part): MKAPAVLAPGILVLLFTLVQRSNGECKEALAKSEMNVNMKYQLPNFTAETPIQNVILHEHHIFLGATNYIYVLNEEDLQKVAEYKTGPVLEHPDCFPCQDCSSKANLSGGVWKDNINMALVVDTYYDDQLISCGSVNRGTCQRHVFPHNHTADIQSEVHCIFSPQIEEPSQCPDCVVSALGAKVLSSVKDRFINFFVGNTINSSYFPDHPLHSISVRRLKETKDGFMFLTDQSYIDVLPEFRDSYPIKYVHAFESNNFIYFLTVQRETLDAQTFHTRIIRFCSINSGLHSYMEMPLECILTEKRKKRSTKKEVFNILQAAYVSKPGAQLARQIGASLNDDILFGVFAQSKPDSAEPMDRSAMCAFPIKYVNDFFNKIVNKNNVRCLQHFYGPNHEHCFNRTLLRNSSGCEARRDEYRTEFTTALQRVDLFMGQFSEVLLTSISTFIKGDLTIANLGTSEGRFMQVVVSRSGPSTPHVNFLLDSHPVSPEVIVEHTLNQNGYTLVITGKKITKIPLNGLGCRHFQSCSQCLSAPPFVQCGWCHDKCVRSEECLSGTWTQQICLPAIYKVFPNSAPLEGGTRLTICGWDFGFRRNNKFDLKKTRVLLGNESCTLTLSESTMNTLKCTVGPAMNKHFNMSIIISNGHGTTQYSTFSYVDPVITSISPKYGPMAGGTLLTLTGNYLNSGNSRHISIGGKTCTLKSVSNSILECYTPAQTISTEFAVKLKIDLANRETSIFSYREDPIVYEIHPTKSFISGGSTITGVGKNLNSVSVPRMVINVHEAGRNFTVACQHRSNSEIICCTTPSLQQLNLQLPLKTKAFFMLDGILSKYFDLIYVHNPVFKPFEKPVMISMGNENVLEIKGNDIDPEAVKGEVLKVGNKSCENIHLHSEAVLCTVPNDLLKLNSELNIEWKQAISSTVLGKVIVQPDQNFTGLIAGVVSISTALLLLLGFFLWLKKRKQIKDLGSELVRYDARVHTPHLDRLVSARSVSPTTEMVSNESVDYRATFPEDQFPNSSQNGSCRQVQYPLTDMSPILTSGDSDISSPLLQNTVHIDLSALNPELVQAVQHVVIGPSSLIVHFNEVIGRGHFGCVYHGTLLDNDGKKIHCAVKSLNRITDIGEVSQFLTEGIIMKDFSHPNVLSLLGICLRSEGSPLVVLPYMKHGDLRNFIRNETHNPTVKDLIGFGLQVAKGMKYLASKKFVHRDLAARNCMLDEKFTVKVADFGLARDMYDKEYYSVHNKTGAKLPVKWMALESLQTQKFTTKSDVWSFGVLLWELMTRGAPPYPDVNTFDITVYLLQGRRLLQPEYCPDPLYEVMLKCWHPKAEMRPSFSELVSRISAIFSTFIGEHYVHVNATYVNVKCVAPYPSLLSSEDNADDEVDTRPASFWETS
Sequence of cGMP-inhibited 3',5'-cyclic phosphodiesterase 3A (Homo sapiens) (Q14432 whole entry): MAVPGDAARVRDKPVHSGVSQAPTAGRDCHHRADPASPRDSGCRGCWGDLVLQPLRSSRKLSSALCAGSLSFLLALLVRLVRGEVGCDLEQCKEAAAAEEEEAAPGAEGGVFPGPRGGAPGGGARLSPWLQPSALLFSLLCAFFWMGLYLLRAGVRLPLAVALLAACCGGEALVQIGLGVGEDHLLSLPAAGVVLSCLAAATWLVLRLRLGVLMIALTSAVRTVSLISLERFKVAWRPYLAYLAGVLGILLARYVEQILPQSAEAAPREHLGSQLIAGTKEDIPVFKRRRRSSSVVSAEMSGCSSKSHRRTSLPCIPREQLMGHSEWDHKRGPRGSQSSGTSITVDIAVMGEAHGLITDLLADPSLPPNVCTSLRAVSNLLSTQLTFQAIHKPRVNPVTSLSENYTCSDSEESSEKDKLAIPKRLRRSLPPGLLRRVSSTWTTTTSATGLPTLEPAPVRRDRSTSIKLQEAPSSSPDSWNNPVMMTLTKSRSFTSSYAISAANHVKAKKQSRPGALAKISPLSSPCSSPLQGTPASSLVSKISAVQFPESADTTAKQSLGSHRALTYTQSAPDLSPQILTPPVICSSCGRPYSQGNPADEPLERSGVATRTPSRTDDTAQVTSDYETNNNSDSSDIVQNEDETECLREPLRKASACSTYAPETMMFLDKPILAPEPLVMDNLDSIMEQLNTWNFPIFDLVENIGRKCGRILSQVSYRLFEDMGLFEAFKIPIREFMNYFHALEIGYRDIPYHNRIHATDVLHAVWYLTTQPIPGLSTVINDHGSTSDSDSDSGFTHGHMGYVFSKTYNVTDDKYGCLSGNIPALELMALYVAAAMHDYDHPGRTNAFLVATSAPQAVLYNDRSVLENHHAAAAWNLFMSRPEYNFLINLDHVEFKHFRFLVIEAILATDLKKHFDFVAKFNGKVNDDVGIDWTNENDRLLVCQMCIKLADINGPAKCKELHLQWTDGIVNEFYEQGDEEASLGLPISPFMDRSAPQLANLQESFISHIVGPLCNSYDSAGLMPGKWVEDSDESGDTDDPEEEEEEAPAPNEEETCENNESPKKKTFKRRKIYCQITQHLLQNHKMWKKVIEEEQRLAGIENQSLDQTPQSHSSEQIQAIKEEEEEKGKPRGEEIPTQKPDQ
Sequence of Vascular endothelial growth factor receptor 2 (P35968 whole entry): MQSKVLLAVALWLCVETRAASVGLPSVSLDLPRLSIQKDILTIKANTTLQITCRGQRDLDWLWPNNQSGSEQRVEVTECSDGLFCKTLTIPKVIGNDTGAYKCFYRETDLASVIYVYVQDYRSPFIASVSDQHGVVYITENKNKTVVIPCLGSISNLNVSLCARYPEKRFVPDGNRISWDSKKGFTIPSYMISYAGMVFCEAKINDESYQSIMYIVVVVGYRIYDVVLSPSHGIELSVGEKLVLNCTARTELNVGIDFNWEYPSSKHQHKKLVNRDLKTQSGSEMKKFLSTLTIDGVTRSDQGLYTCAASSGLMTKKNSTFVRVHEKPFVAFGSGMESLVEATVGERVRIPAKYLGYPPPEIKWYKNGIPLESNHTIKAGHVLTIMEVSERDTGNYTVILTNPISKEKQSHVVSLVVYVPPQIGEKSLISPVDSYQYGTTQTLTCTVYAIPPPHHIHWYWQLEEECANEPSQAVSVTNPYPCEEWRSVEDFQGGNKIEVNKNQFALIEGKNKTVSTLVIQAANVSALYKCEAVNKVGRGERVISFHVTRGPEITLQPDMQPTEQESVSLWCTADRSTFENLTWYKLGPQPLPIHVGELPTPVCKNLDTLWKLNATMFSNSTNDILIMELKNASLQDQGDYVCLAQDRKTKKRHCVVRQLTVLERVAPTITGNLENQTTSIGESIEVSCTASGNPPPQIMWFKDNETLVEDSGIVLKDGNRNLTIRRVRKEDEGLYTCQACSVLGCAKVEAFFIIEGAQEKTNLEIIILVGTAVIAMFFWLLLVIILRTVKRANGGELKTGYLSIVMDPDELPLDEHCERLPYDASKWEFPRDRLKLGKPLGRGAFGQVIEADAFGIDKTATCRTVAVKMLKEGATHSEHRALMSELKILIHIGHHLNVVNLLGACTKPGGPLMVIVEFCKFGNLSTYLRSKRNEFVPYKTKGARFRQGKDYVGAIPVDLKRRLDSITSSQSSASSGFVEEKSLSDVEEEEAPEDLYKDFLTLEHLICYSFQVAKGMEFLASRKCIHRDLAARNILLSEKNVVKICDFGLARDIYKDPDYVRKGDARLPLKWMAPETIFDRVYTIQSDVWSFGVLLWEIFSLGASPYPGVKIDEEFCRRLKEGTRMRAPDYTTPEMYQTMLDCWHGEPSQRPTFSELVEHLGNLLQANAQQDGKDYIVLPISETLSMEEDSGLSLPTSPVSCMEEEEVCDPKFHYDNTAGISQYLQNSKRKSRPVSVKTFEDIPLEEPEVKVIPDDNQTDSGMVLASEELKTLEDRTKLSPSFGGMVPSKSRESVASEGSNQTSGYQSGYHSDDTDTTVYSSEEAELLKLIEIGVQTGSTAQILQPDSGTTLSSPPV
Sequence of Sodium-dependent serotonin transporter (Homo sapiens) (P31645 whole entry, looked up): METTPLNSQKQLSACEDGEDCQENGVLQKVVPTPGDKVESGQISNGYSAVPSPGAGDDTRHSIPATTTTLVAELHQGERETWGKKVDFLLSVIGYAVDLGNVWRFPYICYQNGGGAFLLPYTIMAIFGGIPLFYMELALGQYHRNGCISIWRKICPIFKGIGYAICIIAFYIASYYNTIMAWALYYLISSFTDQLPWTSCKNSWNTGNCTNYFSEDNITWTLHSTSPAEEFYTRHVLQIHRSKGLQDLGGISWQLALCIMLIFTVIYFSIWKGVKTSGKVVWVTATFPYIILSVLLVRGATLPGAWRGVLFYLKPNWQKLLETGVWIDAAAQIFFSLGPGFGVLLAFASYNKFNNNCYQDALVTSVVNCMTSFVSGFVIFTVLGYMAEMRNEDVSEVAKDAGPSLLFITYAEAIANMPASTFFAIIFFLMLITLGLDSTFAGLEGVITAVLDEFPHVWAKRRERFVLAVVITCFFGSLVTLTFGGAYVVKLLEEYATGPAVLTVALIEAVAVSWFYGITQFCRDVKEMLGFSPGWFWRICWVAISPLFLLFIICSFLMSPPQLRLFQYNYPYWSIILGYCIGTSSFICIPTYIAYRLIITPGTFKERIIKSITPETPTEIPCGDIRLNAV

Take `COc1cc2c(Oc3c(F)cc(NC(=O)c4cnccc4OC4CC4)cc3F)ccnc2cc1OCCO`: the solubility kinetic in series [1] amounted to 312 µM (≈ 163 µg/mL); in [2], 8.1 µM (≈ 4.24 µg/mL). Besides, the inhibition in series [3] is -1%; in series [4], 22%; in [5], 69%; in the series listed under Homo sapiens, 57%; in series [6] it was 4%; in [7], 99%. Moreover, the inhibition stood at 96% in series [8] and 81% in series [9]. The figures for the inhibition at 10 µM at hERG and on L-type calcium channel were 13% and 50%, respectively. The clearance in [10] stood at 5.4 mL/min/kg. In series [11], this molecule returned a bioavailability of roughly 100%. Moreover, the results for the EC50 in the series “cells” and in the series on BaF3 were 18 nM and 14 nM, respectively.
In the case of `COc1cc2nccc(Oc3ccc(NC(=O)C4(C(=O)Nc5ccc(F)cc5)CC4)cc3)c2cc1OC` [CABOZANTINIB], the figures for the solubility kinetic in series [1] and in [2] were 21 µM (≈ 10.5 µg/mL) and 5.2 µM (≈ 2.61 µg/mL), respectively.
With `COc1cc2nccc(Oc3c(F)cc(NC(=O)c4cnccc4OC4CC4)cc3F)c2cc1OC`, the solubility kinetic in series [1] is 288 µM (≈ 142 µg/mL); in series [2], 4.4 µM (≈ 2.17 µg/mL). Moreover, the EC50 in “cells” was determined as 43 nM; with BaF3 it was 26 nM.
Turning to `COc1cc2nccc(Oc3ccc(NC(=O)c4ccncc4OC)cc3F)c2cc1OC`, the IC50 against Cytochrome P450 3A4 stood at 300 nM.
Regarding `COc1cc2nccc(Oc3ccc(NC(=O)c4cnccc4OC)cc3F)c2cc1OC`, the solubility kinetic in [1] stood at 252 µM (≈ 113 µg/mL); in [2], 24 µM (≈ 10.8 µg/mL). This molecule came in with an IC50 against Cytochrome P450 3A4 greater than 50000 nM. Besides, the figures for the EC50 in “cells” and in the series on BaF3 were 382 nM and 174 nM, respectively.
With `COc1cc2nccc(Oc3c(F)cc(NC(=O)c4cnccc4OC)cc3F)c2cc1OC`, the values for the solubility kinetic in series [1] and in [2] were 205 µM (≈ 95.8 µg/mL) and 5.4 µM (≈ 2.52 µg/mL), respectively. The EC50 worked out at 123 nM in the series “cells” and 56 nM in the series on BaF3.
`COc1cc2nccc(Oc3ccc(NC(=O)c4ccccc4OC)cc3F)c2cc1OC`: the results for the IC50 in series [12], in series [13] and in series [14] were 4.4 nM, 2.2 nM and 250 nM, respectively. The solubility kinetic stood at 6.1 µM (≈ 2.74 µg/mL) in [1] and 1 µM (≈ 0.448 µg/mL) in [2]. Besides, the EC50 in “cells” was 1320 nM; with BaF3, 795 nM.
